Results: patent US10765680B2, “Combination of a MCL-1 inhibitor and a taxane compound, uses and pharmaceutical compositions thereof” (priority 2017, dated 2020)

Key:
[1] = MDA-MB-231 breast xenograft model, tolerability and surviving animals; format: in vivo, female nude rats; conditions: Compound 1 50 mg/kg dosed 0.5 h or 16 h after vehicle for paclitaxel
Experimental: This study evaluated the antitumor activity and tolerability of Compound 1 in combination with paclitaxel in the triple negative breast cancer (TNBC) model, MDA-MB-231, in female NTac:NIH-Whn nude rats (Taconic).
Compound 1 (free base) and paclitaxel (Sandoz) was used in these studies. Paclitaxel was diluted as per manufacturer's instruction with sterile 5% (w/v) glucose solution to 1.5 mg/ml to administer 7.5 mg/kg in 5 ml/kg dose volume [final ethanol and Cremophor EL concentration was 10 and 15%, respectively in 5% (w/v) glucose solution]. Compound 1 was formulated in a liposomal formulation (Novartis) at 5 mg/ml to administer 50 mg/kg dose in 10 ml/kg dose volume.
MDA-MB-231, a triple negative breast cancer cell line, was obtained from ATCC cell bank. […] Tumor growth was monitored regularly post cell inoculation and animals were randomised into treatment groups (n=7-8) with a mean tumor volume of about 400 mm^3. […]
The vehicle for paclitaxel or paclitaxel was administered once a week (QW) as a slow bolus dose via a caudal vein 0.5 h or 16 h before the vehicle for Compound 1 or Compound 1 itself in liposomal formulation and these were administered by iv infusion over 15 minutes in a caudal vein. […] Tumor volumes were measured using calipers 2-3 times per week. Tumor size, in mm^3, was calculated from: (L×W^2×π/6), where W=width and L=length of the tumor. […]

[2] = test system: PDX models resistant to docetaxel; assay: PDX models resistant to docetaxel, efficacy; format: in vivo, female Swiss Nude mice; conditions: Compound 1 70 mg/kg IV once a week, liposomal formulation
Experimental: PDX models whose resistance to docetaxel has been confirmed in vivo were tested. Each treatment group included 5 female Swiss Nude mice, aged from 6 to 8 weeks old. The treatment started when xenografts reached a mean tumor volume of ˜120-150 mm^3. Groups of mice were then randomly affected to the different treatments. The number of grafted animals depended on the homogeneity of the tumor growth.
Formulated in a liposomal formulation, Compound 1 was administered intravenously at 70 mg/kg once a week. The formulation had to be prepared extemporaneously. Paclitaxel diluted in 0.9% NaCl was given ip at 25 mg/kg. Paclitaxel was given QW 16 hours before the administration of Compound 1. The administration schedule of the different treatments is defined as follows: […]
Tumor sizes were measured twice a week and weights of individual mice were measured once a week. Treatments were done until the median tumor volume of the most responsive group started to regrow. Mice were followed after the stop of the treatment to compare the time to relapse between the groups. […]

COc1ccccc1-c1nccc(COc2ccccc2C[C@@H](Oc2ncnc3sc(-c4ccc(F)cc4)c(-c4ccc(OCCN5CCN(C)CC5)c(Cl)c4C)c23)C(=O)O)n1 [Compound 1, (2R)-2-{[(5Sa)-5-{3-chloro-2-methyl-4-[2-(4-methylpiperazin-1-yl)ethoxy]phenyl}-6-(4-fluorophenyl)thieno[2,3-d]pyrimidin-4-yl]oxy}-3-(2-{[2-(2-methoxyphenyl)pyrimidin-4-yl]methoxy}phenyl)propanoic acid]
tolerability [1]: well tolerated | inhibition of tumor growth, single agent [2]: insufficient in inhibiting tumor growth
